Experiments:
20S proteasome = conditions: localize inside the 20S subunit along the active proteolytic site; ref [14], [15]; cited from earlier work
[1] = target: h20S proteasome, chymotrypsin-like activity (Homo sapiens, UniProt P28074); experiment: Kinetic analysis of proteasome chymotrypsin-like activity with or without Aβ; assay type: biochemical; conditions: pH 7.8, 37°C; for Vmax: LLVY-AMC 0–200 µM, 40 ng h20S in 100 µL

Row | Substance | effect on chymotrypsin-like activity of the proteasome (20S proteasome) | Vmax ([1]; 0 µM Aβ(1–42)) | Vmax ([1]; 1 µM oligomeric Aβ(1–42)) | Vmax ([1]; 5 µM oligomeric Aβ(1–42)) | Vmax, lower end over all Aβ concentrations ([1]; oligomeric Aβ(1–42) 0–5 µM, Table 1: 0 and 0.5 µM Aβ, LLVY-AMC) [µM/min] | Vmax, upper end over all Aβ concentrations ([1]; oligomeric Aβ(1–42) 0–5 µM, Table 1: 5 µM Aβ, LLVY-AMC) [µM/min]
1 | Aβ(1–40): Aβ(1–40) peptides | inhibit the chymotrypsin-like activity of the proteasome |  |  |  |  | 
2 | N-Succinyl-Leu-Leu-Val-Tyr-AMC [LLVY-AMC] |  | 3.1 ± 0.1 x10^−2µM/min | 3.5 ± 0.2 x10^−2µM/min | 3.7 ± 0.3 x10^−2µM/min | 0.031 ± 0.001 | 0.037 ± 0.003

Source: PMC2992454 (ACS chemical neuroscience, 2010)
